Assay results published in the NIST ThermoML archive (doi:10.1021/je300632p).

Assay: xn = mol fraction of the nth substance listed
Conditions: 101 kPa, Liquid; for viscosity: Falling or rolling sphere viscometry; for mass density: Vibrating tube method

CCCCO [butan-1-ol] + CCO
Conditions	mass density [kg/m3]	viscosity [mPa·s]
293.15 K, x2 = 0	809.02	3.066
293.15 K, x2 = 0.1	807.8	2.693
293.15 K, x2 = 0.2	806.38	2.494
293.15 K, x2 = 0.3	804.85	2.242
293.15 K, x2 = 0.4	803.63	2.048
293.15 K, x2 = 0.501	801.61	1.897
293.15 K, x2 = 0.602	799.54	1.725
293.15 K, x2 = 0.701	797.38	1.574
293.15 K, x2 = 0.801	795.11	1.445
293.15 K, x2 = 0.9	792.58	1.301
298.15 K, x2 = 0	805.24	2.534
298.15 K, x2 = 0.1	803.98	2.376
298.15 K, x2 = 0.2	802.53	2.214
298.15 K, x2 = 0.3	800.97	1.993
298.15 K, x2 = 0.4	799.71	1.826
298.15 K, x2 = 0.501	797.65	1.705
298.15 K, x2 = 0.602	795.54	1.55
298.15 K, x2 = 0.701	793.33	1.414
298.15 K, x2 = 0.801	790.98	1.302
298.15 K, x2 = 0.9	788.39	1.18
303.15 K, x2 = 0	801.42	2.234
303.15 K, x2 = 0.1	800.13	2.103
303.15 K, x2 = 0.2	798.65	1.967
303.15 K, x2 = 0.3	797.06	1.777
303.15 K, x2 = 0.4	795.75	1.633
303.15 K, x2 = 0.501	793.66	1.533
303.15 K, x2 = 0.602	791.5	1.397
303.15 K, x2 = 0.701	789.23	1.279
303.15 K, x2 = 0.801	786.82	1.184
303.15 K, x2 = 0.9	784.17	1.072
308.15 K, x2 = 0	797.57	1.978
308.15 K, x2 = 0.1	796.25	1.868
308.15 K, x2 = 0.2	794.74	1.754
308.15 K, x2 = 0.3	793.12	1.591
308.15 K, x2 = 0.4	791.76	1.465
308.15 K, x2 = 0.501	789.63	1.381
308.15 K, x2 = 0.602	787.42	1.262
308.15 K, x2 = 0.701	785.1	1.159
308.15 K, x2 = 0.801	782.64	1.076
308.15 K, x2 = 0.9	779.92	0.977
313.15 K, x2 = 0	793.68	1.756
313.15 K, x2 = 0.1	792.33	1.664
313.15 K, x2 = 0.2	790.79	1.569
313.15 K, x2 = 0.3	789.13	1.427
313.15 K, x2 = 0.4	787.74	1.318
313.15 K, x2 = 0.501	785.57	1.246
313.15 K, x2 = 0.602	783.31	1.142
313.15 K, x2 = 0.701	780.94	1.052
313.15 K, x2 = 0.801	778.41	0.98
313.15 K, x2 = 0.9	775.63	0.892
318.15 K, x2 = 0	789.75	1.564
318.15 K, x2 = 0.1	788.37	1.487
318.15 K, x2 = 0.2	786.8	1.407
318.15 K, x2 = 0.3	785.11	1.283
318.15 K, x2 = 0.4	783.67	1.189
318.15 K, x2 = 0.501	781.46	1.127
318.15 K, x2 = 0.602	779.15	1.037
318.15 K, x2 = 0.701	776.73	0.957
318.15 K, x2 = 0.801	774.14	0.895
318.15 K, x2 = 0.9	771.28	0.815
323.15 K, x2 = 0	785.78	1.397
323.15 K, x2 = 0.1	784.36	1.333
323.15 K, x2 = 0.2	782.76	1.265
323.15 K, x2 = 0.3	781.03	1.158
323.15 K, x2 = 0.4	779.54	1.074
323.15 K, x2 = 0.501	777.29	1.024
323.15 K, x2 = 0.602	774.95	0.943
323.15 K, x2 = 0.701	772.47	0.874
323.15 K, x2 = 0.801	769.82	0.817
323.15 K, x2 = 0.9	766.89	0.748
328.15 K, x2 = 0	781.75	1.252
328.15 K, x2 = 0.1	780.31	1.199
328.15 K, x2 = 0.2	778.67	1.141
328.15 K, x2 = 0.3	776.91	1.047
328.15 K, x2 = 0.4	775.38	0.974
328.15 K, x2 = 0.501	773.09	0.93
328.15 K, x2 = 0.602	770.69	0.86
328.15 K, x2 = 0.701	768.15	0.798
328.15 K, x2 = 0.801	765.44	0.749
328.15 K, x2 = 0.9	762.45	0.686
